≈ marks a conversion by molar mass, not a printed value. Where “and” joins values, the source holds several entries; their conditions need not be identical. Equal entries are not always repeated. Entries after “also recorded” stand apart in the source; their conditions may differ.
Legend:
[1] = tested on: rats given streptozotocin; assay: Relief of onset of streptozotocin-induced diabetes; type: in vivo, rat; conditions: male Wistar rats, streptozotocin 45 mg/kg i.v.; 20 mg/kg/day oral, 10 days; Mean ± SE
Procedure: Eighteen male Wistar rats weighing about 200 g were divided into 3 groups at random. To the animals of 2 groups, 45 mg/kg of streptozotocin was intravenously administered. One of these groups was regarded as a control group, while the other was regarded as the Compound-6 administration group. To the remaining 1 group which was regarded as the normal control group, a 1/10 M citrate buffer (pH 3.5) […] was intravenously administered. Immediately after the administration of streptozotocin, a suspension of Compound-6 in acacia was orally administered once a day continuously for 10 days in a dose of 20 mg/kg/day. To other groups, an acacia solution alone was administered. After fasting for 6 hours after the final administration, blood was collected from the heart of each animal and the blood glucose level and the blood insulin level were measured. As the data given in Table 7a show, the oral administration of Compound-6 inhibited an increase in the blood glucose level and a decrease in the blood insulin level.
Eighteen male SD rats weighing about 250 g were divided into 3 groups at random. […] To the normal control group and the streptozotocin control group, the acacia solution alone was administered orally. After fasting for 6 hours after the final administration, blood was collected from the heart of each animal and the blood glucose level and the blood insulin level were measured. As the data given in Table 7b show, the oral administration of Compound-5 inhibited an increase in the blood glucose level and a decrease in the blood insulin level.

DOCA hypertensive rats = assay: Aneurysm formation in the mesenteric artery of DOCA hypertensive rats; type: in vivo, rat; set-up: Lesion index, individual rats / Lesion index, Avg: scale not given here; conditions: for Appearance frequency (node count/arteriole count×100), individual rats / Lesion index, individual rats / Appearance frequency, Avg / Lesion index, Avg / Node count, Avg / Node count, individual rats: 7 weeks; for Appearance frequency, Avg / Lesion index, Avg / Node count, Avg: 6 rats; for Node count, individual rats: counted thrice, average
Source text: The compounds of the present invention show an effect of inhibiting periarteritis nodosa in a malignant hypertension model rat in which periarteritis nodosa arises in the mesenteric artery and progresses into aneurysm. Among aneurysms, those formed in the mesenteric artery can be treated quantitatively. Thus, the mesenteric artery was taken out and fixed with formalin. Then it was fat-stained and arterioles and aneurysms were counted thrice and the average aneurysm count per arteriole was calculated. To rats with renal hypofunction due to the excision of one kidney, […] saline, having a somewhat higher osmotic pressure than plasma, was given as drinking water and 10 mg/kg of deoxycorticosterone acetate (DOCA) (a mineral corticoid) was subcutaneously administered at intervals of 1 week. Twenty-four male Wistar rats were divided into 4 groups at random. After taking out the left kidney, each animal was allowed to stand and the operative wound was fused. […] The experiment was carried out for 7 weeks. Since the initiation of the experiment, the feed intake, water intake, urine, body weight and blood pressure of each group were measured once every three days.
The average blood pressure exceeded 180 mmHg in the 3rd week and attained 200 mmHg in the 4th week. […] In the 7th week, each animal was dissected and the mesenteric artery was taken out. After treating with formalin, the artery was fat-stained and aneurysms were counted. […] In the high-dose Compound-6 group, the average aneurysm count per arteriole was lowered to 0.27±0.05.
Arterioles and nodes in the mesenteric artery were each counted thrice and the average was calculated.
a) Appearance frequency=node count/arteriole count×100 (%).

[2] = tested on: patients suffered from hypercholesterolemia; assay: Phase I clinical test; type: in vivo, human; conditions: for Serum total cholesterol: Mean ± SE
Procedure: A phase I clinical test of Compound-6, one of the compounds of the present invention, was carried out with 17 female and male patients aged 40 to 82 suffered from hypercholesterolemia. The experiment was continued for 12 weeks and Compound-6 was administered in the first 8 weeks. […] From the 8th week to the 12th week (the placebo-administration period) a placebo was given without notifying the patients. The drug in a daily dose was divided into 3 portions and taken after meals. Each patient visited the hospital once a week and was subject to investigation and blood collection for analyzing serum.

Solubility = type: physicochemical
Procedure: Subsequently, Compound-6 was added to the serum to examine the formation of a Schiff base in vitro. […] When Compound-6 dissolved in dimethyl sulfoxide at a high concentration was added in portions to bovine serum, Compound-6 was dissolved in the serum at a ratio of […] (i.e., 1000-fold) and the serum turned yellow depending on the concentration of Compound-6. When an organic solvent (ethanol, acetonitrile, etc.) was added to this yellow serum, the coloring matter was not dissolved in the organic solvent but precipitated as yellow serum protein. The organic solvent layer contained no Compound-6. However, Compound-6 was quantitatively recovered as an acetonitrile solution by adding acetonitrile containing 1% of acetic acid to this yellow precipitate and allowing the mixture to stand for 1 week. In a reaction between a protein and a drug molecule, there has been taken no consideration into the conversion into a novel compound via the formation of a covalent bond between the drug and serum protein in vivo. However, it is obvious that aldehyde group in the benzene ring of the compounds of the present invention and amino group of serum protein form a Schiff base on the basis of the following facts. (1) The compounds of the present invention cannot be detected by any usual methods from the serum of animals to which the compounds have been administered. (2) The compounds of the present invention are released by adding an acidified organic solvent in a large amount to the serum and allowing to stand at room temperature for about 1 week. (3) When added to serum in vitro, the compounds of the present invention are dissolved at a ratio as high as 1000-fold and can be recovered by the same method as used in recovering the compounds of the present invention from the serum of animals to which the compounds have been administered. (4) The serum of animals, to which the compounds have been administered, or serum containing the compounds of the present invention turns into yellow.

db/db mice = conditions: oral; cited from earlier work
[3] = After 10 weeks, placebo period after 8 weeks of drug (carry-over)
[4] = After 12 weeks, placebo period after 8 weeks of drug (carry-over)

Compound: COc1c(Cl)c(C)c(C=O)c(O)c1C/C=C(C)/C=C/[C@@]1(C)[C@H](C)CCC(=O)[C@@H]1C [Compound-6, 4-O-methylASC]
- Blood glucose [1]: 277.2 ± 52.44 mg/dL
- Serum IRI [1]: 12.3 ± 1.65 mU/ml
- Appearance frequency (node count/arteriole count×100), individual rats (DOCA hypertensive rats; 10 mg/kg/day): 25.89% and 20.56% and 27.27% and 274.91% and 33.35% and 15.00%
- Lesion index, individual rats (DOCA hypertensive rats; 10 mg/kg/day): 1 (5×) and 4
- Appearance frequency, Avg (DOCA hypertensive rats; 10 mg/kg/day): 66.16 ± 41.83%
- Lesion index, Avg (DOCA hypertensive rats; 10 mg/kg/day): 1.50 ± 0.50
- Node count, Avg (DOCA hypertensive rats; 10 mg/kg/day): 9.27
- Node count, individual rats (DOCA hypertensive rats; 10 mg/kg/day): 2.33 (2×) and 3.00 and 40.33 and 5.67 and 2.00
- Appearance frequency (node count/arteriole count×100), individual rats (DOCA hypertensive rats; 40 mg/kg/day): 7.89% and 3.19% and 16.67% and 36.59% and 25.62% and 28.87%
- Lesion index, individual rats (DOCA hypertensive rats; 40 mg/kg/day): 1
- Appearance frequency, Avg (DOCA hypertensive rats; 40 mg/kg/day): 26.57 ± 5.24 %
- Lesion index, Avg (DOCA hypertensive rats; 40 mg/kg/day): 1.00 ± 0.00
- Node count, Avg (DOCA hypertensive rats; 40 mg/kg/day): 2.67
- Node count, individual rats (DOCA hypertensive rats; 40 mg/kg/day): 1.00 and 0.33 and 2.00 and 5.00 and 3.33 and 4.33
- average aneurysm count per arteriole (DOCA hypertensive rats; high-dose group (40 mg/kg/day), 7th week): 0.27±0.05
- aneurysms per arteriole on average (DOCA hypertensive rats; low-dose group (10 mg/kg/day), 7th week): 0.66±0.41
- patients with vertigo ([2]; 17 patients): one
- Serum total cholesterol, Decrease ([2]; After 1 week, dose 0.5 (mg.kg)): −20%
- Serum total cholesterol ([2]; After 1 week, dose 0.5 (mg.kg), n = 17): 273 ± 62.7 mg/dL
- Serum total cholesterol, Decrease ([2]; After 2 weeks, dose 1 (mg.kg)): −22%
- Serum total cholesterol ([2]; After 2 weeks, dose 1 (mg.kg), n = 17): 266 ± 66.7 mg/dL
- Serum total cholesterol, Decrease ([2]; After 3 weeks, dose 2 (mg.kg)): −21%
- Serum total cholesterol ([2]; After 3 weeks, dose 2 (mg.kg), n = 17): 269 ± 66.0 mg/dL
- Serum total cholesterol, Decrease ([2]; After 4 weeks, dose 4 (mg.kg)): −28%
- Serum total cholesterol ([2]; After 4 weeks, dose 4 (mg.kg), n = 17): 254 ± 65.7 mg/dL
- Serum total cholesterol, Decrease ([2]; After 6 weeks, dose 8 (mg.kg)): −36%
- Serum total cholesterol ([2]; After 6 weeks, dose 8 (mg.kg), n = 17): 217 ± 58.8 mg/dL
- Serum total cholesterol, Decrease ([2]; After 8 weeks, dose 16 (mg.kg)): −33%
- Serum total cholesterol ([2]; After 8 weeks, dose 16 (mg.kg), n = 17): 229 ± 61.5 mg/dL
- Serum total cholesterol, Decrease [2, 3]: −25%
- Serum total cholesterol [2, 3]: 256 ± 57.6 mg/dL
- Serum total cholesterol, Decrease [2, 4]: −22%
- Serum total cholesterol [2, 4]: 264 ± 57.7 mg/dL
- side effects, subjective or objective ([2]; daily dose 1 mg/kg to 16 mg/kg, oral): no serious side effect; also recorded: no subjective or objective side effect
- blood glucose levels of 5 diabetics included in the patients, lowered to ([2]; human, in vivo): 100 mg/dL
- systolic and diastolic blood pressure of patients with hypertension or borderline hypertension ([2]; human, in vivo): lowered
- dissolved in bovine serum at a ratio of (Solubility; added in portions from dimethyl sulfoxide solution): 800 µg/mL
- solubility in serum relative to PBS (Solubility; bovine serum): 1000 fold
- solubility (Solubility; phosphate buffer saline (PBS)): 0.8 µg/mL (≈ 1.91 µM)

Compound: CC(/C=C/[C@@]1(C)[C@H](C)CCC(=O)[C@@H]1C)=C\Cc1c(O)c(C=O)c(C)c(Cl)c1OCC(=O)O [Compound-14, 4-O-carboxymethylASC]
- blood glucose level, serum lipid level and serum insulin level (db/db mice): significantly lowered
